pKd: −log10 of the molar value. Like-named read-outs stand apart in the source and are kept apart here.

Results on eight compounds are retold here after paper doi:10.1101/2020.06.20.162875v1 (biorxiv, 2020).

Assay [1] deals with T1, PNA (peanut lectin, peanut agglutinin) (Arachis hypogaea, UniProt P02872).
T1 sequence (P02872 24-259): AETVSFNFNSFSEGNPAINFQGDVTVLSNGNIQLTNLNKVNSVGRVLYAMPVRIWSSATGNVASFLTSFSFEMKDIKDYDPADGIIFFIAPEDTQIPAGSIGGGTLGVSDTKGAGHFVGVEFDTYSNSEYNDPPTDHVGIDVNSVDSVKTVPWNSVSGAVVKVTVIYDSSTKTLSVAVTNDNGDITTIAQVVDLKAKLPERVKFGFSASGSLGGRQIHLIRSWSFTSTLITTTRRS
Description: isothermal titration calorimetry. The assay is classed as binding. On the technique in general: Isothermal titration calorimetry measures the heat released or taken up as one component is titrated into another.

For assay [2], the target named is T1, PNA (peanut lectin, peanut agglutinin). Nature of the assay: isothermal titration calorimetry. The assay is classed as binding. The source holds these as a separate data set.

In turn, `OC[C@H]1O[C@@H](O[C@H]2[C@H](O)[C@@H](O)C(O)O[C@@H]2CO)[C@H](O)[C@@H](O)[C@H]1O` (some centres unmarked) [Lactose] showed a pKd in assay [1] (298 K, independent single-site model, reference compound) of 3.19.

For the compound `CO[C@H]1O[C@H](Cn2cc(CNC(=O)CCC(=O)N[C@@H]3O[C@H](CO)[C@H](O)[C@H](O)[C@H]3O)nn2)[C@@H](O)[C@H](O)[C@H]1O` [NGS], the negative logarithm of the Kd (pKd) in assay [2] was 2.79.

`CO[C@H]1O[C@H](Cn2cc(CSC[C@H]3O[C@@H](S[C@@H]4O[C@H](CO)[C@H](O)[C@H](O)[C@H]4O)[C@H](O)[C@@H](O)[C@@H]3O)nn2)[C@@H](O)[C@H](O)[C@H]1O` [STGD]: in assay [2], the pKd is 3.38. This pKd lies 0.59 log units higher than the previous one.

Turning to `C#CCSC[C@H]1O[C@@H](S[C@@H]2O[C@H](CO)[C@H](O)[C@H](O)[C@H]2O)[C@H](O)[C@@H](O)[C@@H]1O` [STG], the negative-log Kd (pKd) in assay [2] was 3.26.

On to `OC[C@H]1O[C@@H](S[C@@H]2O[C@H](CO)[C@H](O)[C@H](O)[C@H]2O)[C@H](O)[C@@H](O)[C@H]1O` [TDG], for which the pKd in assay [1] is 3.28.

`O=C(CCC(=O)N[C@@H]1O[C@H](CO)[C@H](O)[C@H](O)[C@H]1O)NCc1cn([C@H]2CO[C@H]3[C@@H]2OC[C@@H]3n2cc(CNC(=O)CCC(=O)N[C@@H]3O[C@H](CO)[C@H](O)[C@H](O)[C@H]3O)nn2)nn1` [diNGS]: the negative logarithm of the Kd (pKd) in assay [2] was 3.16.

Regarding `O=C(NCc1cn(C2COC3C2OCC3n2cc(CNC(=O)[C@H](O)[C@@H](O)C(=O)N[C@@H]3O[C@H](CO)[C@H](O)[C@H](O)[C@H]3O)nn2)nn1)[C@H](O)[C@@H](O)C(=O)N[C@@H]1O[C@H](CO)[C@H](O)[C@H](O)[C@H]1O` (some centres unmarked) [diNGT], the pKd in assay [2] is 3.26. The pKd values of the last two compounds are within 0.2 log units of each other.

In assay [2], `OC[C@H]1O[C@@H](S[C@@H]2O[C@H](CSCc3cn(C[C@H]4O[C@H](O[C@H]5O[C@H](Cn6cc(CSC[C@H]7O[C@@H](S[C@@H]8O[C@H](CO)[C@H](O)[C@H](O)[C@H]8O)[C@H](O)[C@@H](O)[C@@H]7O)nn6)[C@@H](O)[C@H](O)[C@H]5O)[C@H](O)[C@@H](O)[C@@H]4O)nn3)[C@@H](O)[C@H](O)[C@H]2O)[C@H](O)[C@@H](O)[C@H]1O` [diSTGD] had a pKd of 3.79.

What is called pKd is the Kd on a negative log10 scale, so that one unit is a factor of ten. A higher pKd goes with a low Kd.
